Source: US20250144088A1, “INHALABLE FORMULATION FOR USE IN THE TREATMENT OF BACTERIAL LUNG INFECTIONS” (priority 2022, published 2025)
Like-named read-outs stand apart in the source and are kept apart here.

Legend:
[1] = test system: Mycobacterium tuberculosis strains; settings: cited from earlier work
J774 cells = assay: High content analysis of drug-induced phospholipidosis (DIPL) and cytotoxicity in macrophage-like cells; format: cell-based; settings: mouse, 48 h
Description: FIG. 1: A macrophage-like cell line (J774 cells) were used to screen whether three different nanocarrier formulations differing in their lipid compositions (1: DOPC/Chol, 2: DMPC/DMPG or 3: pegylated DOPC/Chol) i) are cytotoxic to this cell type and protect the cells from BDQ-induced DIPL. A heat map was used to depict the number of cells with DIPL-induced abnormalities (first two left-hand columns) and cytotoxicity markers (columns on the right). Black fields indicate that <10% of the cells in the treatment groups were abnormal, whereas grey-to-white colored fields denote an increasing proportion of cells with abnormalities. The heatmap at the top depicts the positive control group for DIPL, which consisted of four known CADs (amiodarone, amytryptiline, azithromycin, and BDQ) administered to the cells in solution (no formulation). […] The numbers on the left-hand side of each heatmap denote the CAD dose (μM) and the total lipid concentration (μg/mL) added to each well. The values depicted the mean % abnormal cells from six replicate formulations tested in four different cell passage numbers.
High content analysis was initially used as a rapid screening tool to evaluate interactions between lipid-based nanocarrier (TargoSphere©) formulations applied as liquid dispersions and macrophage cells. […] Two of the formulations (DOPC/Chol and DMPG/DMPC) contained Fuc-C4-Chol as a C-type lectin receptor targeting ligand (+CLR). Four concentrations ranging from 15-700 μg/mL (total solid content) were tested. After an incubation time of 48 h three assays with different fluorescence markers were performed. […]
For high content analysis, images were documented using the Cytation™ 5 Cell Imaging Multi-Mode Reader (BioTek, Bad Friedrichshall, Germany) with a 40× objective in standard 2D imaging mode. For each well 6 pictures were analysed using the Gen5 software (BioTek, Bad Friedrichshall, Germany). […] For both dyes the fluorescence intensity values were measured. […] Area and size of the vacuoles were identified and measured based on negative staining. […]

[2] = In vivo pharmacokinetics, current example (i.v., i.n., p.o.), healthy Balb-c mice
Protocol: Values represent the mean of n=6 animals per time point.
After 0.5, 3, 24, 48, 72 and 96 hours, the animals were sacrificed and samples were taken from the blood plasma, lung tissues, lung epithelial fluid and cellular fraction of the lung epithelial fluid. […]

[3] = mouse, in vivo, po, 30 mg/kg; cited from earlier work
[4] = p.o. 25 mg/kg, HP-β-CD solution, Irwin, 2016, male Balb/c mice, cited from earlier work
[5] = Balb-c, mouse, in vivo, po, 25 mg/kg

For `CNCCC(O)(c1cccc2ccccc12)C(c1ccccc1)c1cc2cc(Br)ccc2nc1OC` (stereo not drawn) [M2, N-desmethyl-BDQ], the “attenuated activity against Mycobacterium tuberculosis strains compared to BDQ” value [1] is listed as 3- to 5 fold.

With `CC[C@H]1OC(=O)[C@H](C)[C@@H](O[C@H]2C[C@@](C)(OC)[C@@H](O)[C@H](C)O2)[C@H](C)[C@@H](O[C@@H]2O[C@H](C)C[C@H](N(C)C)[C@H]2O)[C@](C)(O)C[C@@H](C)CN(C)[C@H](C)[C@@H](O)[C@]1(C)O` [azithromycin] the “cells exhibiting abnormal phospholipid accumulation” value (J774 cells) was about 100%.

In the case of `CCCCc1oc2ccccc2c1C(=O)c1cc(I)c(OCCN(CC)CC)c(I)c1` [amiodarone], the “cells exhibiting abnormal phospholipid accumulation” value (J774 cells) is reported as about 100%.

With `COc1nc2ccc(Br)cc2cc1[C@@H](c1ccccc1)[C@@](O)(CCN(C)C)c1cccc2ccccc12` [BDQ, bedaquiline] the “cells exhibiting abnormal phospholipid accumulation” value (J774 cells) was about 100%, the tmax ([2]; BDQ in plasma, p.o. 25 mg/kg, drug suspension, current example) was 0.5 h and the Kp ([2]; Balb-c, mouse, in vivo) was 62. The “increase in lung exposure after intrapulmonary administration” value ([2]; Balb-c, mouse, in vivo) was 3 fold, the Kp ([2]; Balb-c, mouse, in vivo, iv) was 15 and the Kp ([2]; Balb-c, mouse, in vivo, po) was 11. The Tmax [2, 5] was 3 h, the tmax [2, 5] was 24 h and the tmax [3] was 24 h. For the same molecule, the tmax ([4]; BDQ in lung tissue) was 8 h, the Cmax ([4]; BDQ in plasma) was 2900 ng/mL and the tmax ([4]; BDQ in plasma) was 0.5 h.
